{
  "source": "PubChem BioAssay (NCI)",
  "test_in_all_cases": "NCI-60 cell line screen, 384-well format",
  "key": {"[1]": {"test_system": "SF-295 CNS"}, "[2]": {"test_system": "U251 glioblastoma"}, "[3]": {"test_system": "M14 melanoma"}, "[4]": {"test_system": "ACHN renal"}, "[5]": {"test_system": "HCT-116 colon"}, "[6]": {"test_system": "CCRF-CEM leukemia"}, "[7]": {"test_system": "SR leukemia"}, "[8]": {"test_system": "MDA-MB-468 breast"}, "[9]": {"test_system": "SK-MEL-2 melanoma"}, "[10]": {"test_system": "CAKI-1 renal"}, "[11]": {"test_system": "IGROV1 ovarian"}, "[12]": {"test_system": "SNB-19 CNS"}, "[13]": {"test_system": "LOX IMVI melanoma"}},
  "note": "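GI50: concentration for 50% inhibition of growth. TGI denotes the concentration required for complete inhibition of growth.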",
  "data": [
    {"smiles": "CC(O)[C@H](NC(=O)N[C@@H](CC(N)=O)c1nc(N2CCNCC2)no1)C(=O)O", "note": "(stereo partly specified)", "values": [
      {"measurement": "GI50", "setting": "[1]", "value": "> 100", "unit": "µM"},
      {"measurement": "TGI", "setting": "[1]", "value": "> 100", "unit": "µM"},
      {"measurement": "GI50", "setting": "[2]", "value": "> 100", "unit": "µM"},
      {"measurement": "TGI", "setting": "[2]", "value": "> 100", "unit": "µM"},
      {"measurement": "GI50", "setting": "[3]", "value": "> 100", "unit": "µM"},
      {"measurement": "TGI", "setting": "[3]", "value": "> 100", "unit": "µM"},
      {"measurement": "GI50", "setting": "[4]", "value": "> 100", "unit": "µM"},
      {"measurement": "TGI", "setting": "[4]", "value": "> 100", "unit": "µM"},
      {"measurement": "GI50", "setting": "[5]", "value": "> 100", "unit": "µM"},
      {"measurement": "TGI", "setting": "[5]", "value": "> 100", "unit": "µM"},
      {"measurement": "GI50", "setting": "[6]", "value": "> 100", "unit": "µM"},
      {"measurement": "TGI", "setting": "[6]", "value": "> 100", "unit": "µM"},
      {"measurement": "GI50", "setting": "[7]", "value": "> 100", "unit": "µM"},
      {"measurement": "TGI", "setting": "[7]", "value": "> 100", "unit": "µM"},
      {"measurement": "GI50", "setting": "[8]", "value": "> 100", "unit": "µM"},
      {"measurement": "TGI", "setting": "[8]", "value": "> 100", "unit": "µM"},
      {"measurement": "GI50", "setting": "[9]", "value": "> 100", "unit": "µM"},
      {"measurement": "TGI", "setting": "[9]", "value": "> 100", "unit": "µM"},
      {"measurement": "GI50", "setting": "[10]", "value": "> 100", "unit": "µM"},
      {"measurement": "TGI", "setting": "[10]", "value": "> 100", "unit": "µM"},
      {"measurement": "GI50", "setting": "[11]", "value": "> 100", "unit": "µM"},
      {"measurement": "TGI", "setting": "[11]", "value": "> 100", "unit": "µM"},
      {"measurement": "GI50", "setting": "[12]", "value": "> 100", "unit": "µM"},
      {"measurement": "TGI", "setting": "[12]", "value": "> 100", "unit": "µM"},
      {"measurement": "GI50", "setting": "[13]", "value": "> 100", "unit": "µM"},
      {"measurement": "TGI", "setting": "[13]", "value": "> 100", "unit": "µM"}
    ]}
  ]
}
